Data taken from PubChem BioAssay AID2060496 (Molecular Pharmacology Branch, DTP, NCI, 2025).
Where “and” joins values, the source holds several entries; their conditions need not be identical. Equal values may be shown once.

System: 276233-004-R-J1-PDC complex spheroid viability
Assay: Anticancer human tumor 276233-004-R-J1-PDC patient-derived colon adenocarcinoma cell line growth inhibition [GQUAD]
Conditions: for viability, T/C: stronger effect = lower value
Description: DNA G-quadruplex Stabilizer Agents in Combinations in Complex Spheroids
A high-throughput screen of multi-cell type tumor spheroids was designed to identify active combinations of DNA G-quadruplex stabilizer agents and targeted small molecules. Complex spheroids include a stromal component modeled by human endothelial cells (HUVEC) and fibroblasts modeled by human mesenchymal stem cells (MSCs). The concentration ranges selected for each drug and investigational agent were based upon clinically achievable concentrations if the clinical Cmax of the agent was known.
Compounds. The drugs and investigational agents: pidnarulex (CX-5461; NSC782164), APTO-253 (NSC789042), BRACO-19 (NSC847499), peposertib (NSC802822), ceralasertib (NSC780249), elimusertib (NSC800525), camonsertib (NSC841442), AZD-1390 (NSC803789), olaparib (NSC753686), talazoparib (NSC767125), ART-558 (NSC835418), sotorasib (NSC818433), MRTX-1133 (NSC836407), SN-38 (NSC673596), topotecan (NSC609699), etoposide (NSC141540), doxorubicin (NSC123127), gemcitabine (NSC613327), 5-fluorouracil (NSC19893), paclitaxel (NSC125973), vemurafenib (NSC761431), panobinostat (NSC761190), R-306465 (JNJ-16241199; NSC773264), adavosertib (NSC754352), TP-3654 (NSC805149), carboplatin (NSC241240), KSQ-4279 (NSC840948), and staurosporine (NSC755774) were obtained from the National Cancer Institute (NCI) Developmental Therapeutics Program Chemical Repository (34). The FDA-approved anticancer drug set is available from the NCI Developmental Therapeutics Program. […] The stock solutions were prepared in dimethyl sulfoxide (DMSO, Sigma-Aldrich, St. Louis, MO, cat. D2650) at 800-fold the tested concentration and stored at -70 degrees C prior to their use. All drugs and investigational agents were tested over a range starting from a high concentration at or near the clinical Cmax and decreasing in half-log increments. If the clinical Cmax for an agent had not been determined, the highest concentration tested was 10 microM.
2.3 Cell Culture. All cells were maintained in an incubator at 37 degrees C and 5% CO2 with 95% humidity. The PDC lines were cultured according to standard operating procedures established by the NCI PDMR. All PDCs were thawed and cultured in Matrigel-coated flasks prepared with a working solution of 1X Ham's F-12 nutrient mix, without supplementation (Invitrogen, cat. 11765054), 100 U/mL penicillin-streptomycin (Invitrogen, cat. 15140122), and 2.5% Matrigel (Corning Inc., cat. 354248) for the first three passages. The 857933-349-R-J2-PDC line was cultured in 6C/Colon 1B media, which includes advanced DMEM/F-12 (Thermo Fisher Scientific, cat. 12634028), 10 mM HEPES (Thermo Fisher Scientific, cat. 15630080), 1X GlutaMAX supplement (Thermo Fisher Scientific, cat. 35050061), 0.1 mg/mL primocin (InvivoGen, cat. ant-pm-2), 10% defined fetal bovine serum, heat inactivated (HyClone Laboratories Inc., cat. SH30070.03HI), 50% L-WRN conditioned media (ATCC, cat. CRL-3276), 1.25 mM N-Acetyl-L-cysteine (Sigma-Aldrich, cat. A9165), 10 mM nicotinamide (Sigma-Aldrich, cat. N0636), 1X B-27 supplement (Thermo Fisher Scientific, cat. 17504044), 1X N-2 supplement (Thermo Fisher Scientific, cat. 17502048), 10 microM Y-27632 dihydrochloride (Tocris Bioscience, cat. 1254), and 50 ng/mL human EGF recombinant protein (Thermo Fisher Scientific, cat. PHG0311). The 485176-168-R4-J1-PDC line was cultured in Panc media, which includes all 6C/Colon 1B media components plus 100 ng/mL human FGF-10 (Thermo Fisher Scientific, cat. 100-26), 500 nM SB-431542 (Selleckchem, cat. S1067), and gastrin (Tocris, cat. 3006).
[…]
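Further: spheroids exposed to drugs for seven days.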
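Wherever viability, T/C is given: 100% = DMSO vehicle control viability.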

Structure (SMILES): Cn1ncnc1[C@H]1c2n[nH]c(=O)c3cc(F)cc(c23)N[C@@H]1c1ccc(F)cc1 + Cc1cnc(CNC(=O)c2c(=O)c3ccc(N4CCCN(C)CC4)nc3n3c2sc2ccccc23)cn1
- IC50 (curve of first compound, second compound 0.0316 µM): > 0.316 µM
- IC50 (curve of first compound, second compound 0.1 µM): > 0.316 µM
- IC50 (curve of first compound, second compound 0.316 µM): > 0.316 µM
- IC50 (curve of first compound, second compound 1 µM): > 0.316 µM
- IC50 (curve of first compound, second compound 3.16 µM): > 0.316 µM
- IC50 (curve of first compound, second compound 10 µM): > 0.316 µM
- viability, T/C (second compound 0.0316 µM, first compound 0.000999 µM): 94.8%
- viability, T/C (second compound 0.0316 µM, first compound 0.00316 µM): 72.2%
- viability, T/C (second compound 0.0316 µM, first compound 0.00999 µM): 79.9%
- viability, T/C (second compound 0.0316 µM, first compound 0.0316 µM): 82.6%
- viability, T/C (second compound 0.0316 µM, first compound 0.0999 µM): 82.9%
- viability, T/C (second compound 0.0316 µM, first compound 0.316 µM): 83.8%
- viability, T/C (second compound 0.1 µM, first compound 0.000999 µM): 92.2%
- viability, T/C (second compound 0.1 µM, first compound 0.00316 µM): 85.1%
- viability, T/C (second compound 0.1 µM, first compound 0.00999 µM): 73%
- viability, T/C (second compound 0.1 µM, first compound 0.0316 µM): 78.3%
- viability, T/C (second compound 0.1 µM, first compound 0.0999 µM): 89.2%
- viability, T/C (second compound 0.1 µM, first compound 0.316 µM): 87.3%
- viability, T/C (second compound 0.316 µM, first compound 0.000999 µM): 78.6%
- viability, T/C (second compound 0.316 µM, first compound 0.00316 µM): 91.9%
- viability, T/C (second compound 0.316 µM, first compound 0.00999 µM): 86.4%
- viability, T/C (second compound 0.316 µM, first compound 0.0316 µM): 82.8%
- viability, T/C (second compound 0.316 µM, first compound 0.0999 µM): 80.8%
- viability, T/C (second compound 0.316 µM, first compound 0.316 µM): 78.2%
- viability, T/C (second compound 1 µM, first compound 0.000999 µM): 70.3%
- viability, T/C (second compound 1 µM, first compound 0.00316 µM): 65.9%
- viability, T/C (second compound 1 µM, first compound 0.00999 µM): 80.1%
- viability, T/C (second compound 1 µM, first compound 0.0316 µM): 74.4%
- viability, T/C (second compound 1 µM, first compound 0.0999 µM): 88.5%
- viability, T/C (second compound 1 µM, first compound 0.316 µM): 69.2%
- viability, T/C (second compound 3.16 µM, first compound 0.000999 µM): 69.5%
- viability, T/C (second compound 3.16 µM, first compound 0.00316 µM): 71.5%
- viability, T/C (second compound 3.16 µM, first compound 0.00999 µM): 61.2%
- viability, T/C (second compound 3.16 µM, first compound 0.0316 µM): 67.5%
- viability, T/C (second compound 3.16 µM, first compound 0.0999 µM): 70.7%
- viability, T/C (second compound 3.16 µM, first compound 0.316 µM): 62.8%
- viability, T/C (second compound 10 µM, first compound 0.000999 µM): 68.4%
- viability, T/C (second compound 10 µM, first compound 0.00316 µM): 59.1%
- viability, T/C (second compound 10 µM, first compound 0.00999 µM): 64.8%
- viability, T/C (second compound 10 µM, first compound 0.0316 µM): 71.8%
- viability, T/C (second compound 10 µM, first compound 0.0999 µM): 66.2%
- viability, T/C (second compound 10 µM, first compound 0.316 µM): 63.5%

Structure (SMILES): COc1ncnc(C2CC2)c1-c1ncc2cnn(Cc3ccc(-c4nc(C(F)(F)F)cn4C(C)C)cc3)c2n1
- viability, T/C (compound 0.0316 µM): 86% and 85.2% and 92%
- viability, T/C (compound 0.1 µM): 69% and 77.1% and 72.8%
- viability, T/C (compound 0.316 µM): 84.5% and 105% and 85.5%
- viability, T/C (compound 1 µM): 82% and 82.4% and 85.8%
- viability, T/C (compound 3.16 µM): 94.6% and 92.9% and 82.1%
- viability, T/C (compound 10 µM): 98% and 75.9% and 97.7%
- IC50 (curve of compound): > 10 µM

Structure (SMILES): O=C(NO)c1cnc(N2CCN(S(=O)(=O)c3ccc4ccccc4c3)CC2)nc1
- viability, T/C (compound 0.0316 µM): 87% and 88.3% and 112%
- viability, T/C (compound 0.1 µM): 108% and 125% and 89%
- viability, T/C (compound 0.316 µM): 68.1% and 77.6% and 63.9%
- viability, T/C (compound 1 µM): 1.97% and 0.86% and 8.3%
- viability, T/C (compound 3.16 µM): 0.67% and 0.79% and 4.97%
- viability, T/C (compound 10 µM): 1.35% and 1.12% and 3.62%
- IC50 (curve of compound): 0.432 µM and 0.479 µM and 0.397 µM
